Data reported in US8785488B2 (Exelixis Patent Company LLC, priority 2009, dated 2014).

Molecular target: T1, human TGR5 (h-TGR5) (Homo sapiens, UniProt Q8TDU6)
T1 construct: expressed in transfected cells
T1 sequence (Q8TDU6 1-330): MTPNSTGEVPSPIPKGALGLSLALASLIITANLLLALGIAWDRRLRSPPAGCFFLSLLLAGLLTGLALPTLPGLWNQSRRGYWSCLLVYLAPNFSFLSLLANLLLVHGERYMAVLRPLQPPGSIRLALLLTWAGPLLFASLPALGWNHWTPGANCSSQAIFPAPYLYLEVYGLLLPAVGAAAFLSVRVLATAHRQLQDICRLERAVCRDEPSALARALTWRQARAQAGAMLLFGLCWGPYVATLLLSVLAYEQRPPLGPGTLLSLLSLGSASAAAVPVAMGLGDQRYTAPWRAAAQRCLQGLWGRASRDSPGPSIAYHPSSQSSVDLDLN
Assay: TGR5/CRE-Luciferiase Assay (HEK 293 hTGR5/CRE-Luc cells)
Assay type: cell-based
Settings: HEK 293 hTGR5/CRE-Luc cells, 6 hours incubation, luciferase activity; Table 2; read-out: h-TGR5CRE-Luc EC50 (CRE-Luc)
Method: Compounds were serially diluted in DMEM containing 5% DMSO and 5 μL of compound or media alone was transferred to each well and plates were incubated for 6 hours. Following incubation, 30 μL of lysis/luciferase buffer was added to each well. The luciferase activity was then measured on the EnVision™ plate reader and the dose response data was analyzed using ActivityBase.
In the following tables, EC50 values determined according to the TGR5 cAMP Assay described herein (cAMP); EC50 values determined according to the TGR5/CRE-Luciferiase Assay described herein (CRE-Luc). […] The following compounds in Tables 1 and 2 were made by using procedures described in the above Schemes and Examples, and, where applicable, by making any necessary substitutions of known materials that one skilled in the art would ordinarily understand how to do.

EC50 [nM] | Compound
100 to 1000 | Fc1ccc(-n2c(Cc3ccc(Cl)c(F)c3)nnc2SCc2c(F)cccc2Cl)cc1 [Example 38]
1000 to 10000 | Fc1ccc(-n2c(Cc3ccc(F)c(Cl)c3)nnc2SCc2c(F)cccc2Cl)cc1 [Example 15]

Same assay, conditions: h-TGR5 CRE-Luc EC50, Table 1; read-out: CRE-Luc (EC50)

Compound | EC50 [nM]
COc1ccc(C(C)(C)c2cnc(SCc3ccc(C(=O)O)cc3F)n2-c2ccc(F)cc2)cc1Cl [4-({[5-{1-[3-chloro-4-(methyloxy)phenyl]-1-methylethyl}-1-(4-fluorophenyl)-1H-imidazol-2-yl]thio}methyl)-3-fluorobenzoic acid] | 100 to 1000
CC(=O)c1ccc(OCc2ncc(C(C)(C)c3ccc(Cl)c(Cl)c3)n2-c2ccc(F)cc2)c(Cl)c1 [1-{3-chloro-4-[({5-[1-(3,4-dichlorophenyl)-1-methylethyl]-1-(4-fluorophenyl)-1H-imidazol-2-yl}methyl)oxy]phenyl}ethanone] | 1000 to 10000
CC(C)(c1ccc(Cl)c(O)c1)c1cnc(SCc2c(F)cc(C(=O)O)cc2F)n1-c1ccc(F)cc1 [4-[({5-[1-(4-chloro-3-hydroxyphenyl)-1-methylethyl]-1-(4-fluorophenyl)-1H-imidazol-2-yl}thio)methyl]-3,5-difluorobenzoic acid] | 100 to 1000
CC(C)(c1ccc(Cl)c(Cl)c1)c1cnc(SCc2ccc(F)c(-c3nnn[nH]3)c2)n1-c1ccc(F)cc1 [5-{5-[({5-[1-(3,4-dichlorophenyl)-1-methylethyl]-1-(4-fluorophenyl)-1H-imidazol-2-yl}thio)methyl]-2-fluorophenyl}-1H-tetrazole] | 100 to 1000
CC(C)(Oc1cc(-n2c(C(C)(C)c3ccc(Cl)c(Cl)c3)cnc2SCc2ccc(F)cc2Cl)ccc1F)C(=O)O [2-{[5-(2-{[(2-chloro-4-fluorophenyl)methyl]thio}-5-[1-(3,4-dichlorophenyl)-1-methylethyl]-1H-imidazol-1-yl)-2-fluorophenyl]oxy}-2-methylpropanoic acid] | 1000 to 10000
COc1ccc(C(C)(C)c2cnc(C(=O)N(C)c3c(F)cccc3Cl)n2-c2ccc(F)cc2)cc1OC [5-{1-[3,4-bis(methyloxy)phenyl]-1-methylethyl}-N-(2-chloro-6-fluorophenyl)-1-(4-fluorophenyl)-N-methyl-1H-imidazole-2-carboxamide] | 1000 to 10000
CC(C)(c1ccc(Cl)c(Cl)c1)c1cnc(SCc2ccc(F)c(C(=O)NCCN3CCOCC3)c2)n1-c1ccc(F)cc1 [5-[({5-[1-(3,4-dichlorophenyl)-1-methylethyl]-1-(4-fluorophenyl)-1H-imidazol-2-yl}thio)methyl]-2-fluoro-N-(2-morpholin-4-ylethyl)benzamide] | 100 to 1000
CC(C)(c1ccc(Cl)c(Cl)c1)c1cnc(SCc2ccc(Cl)c(C(N)=O)c2)n1-c1ccc(F)cc1 [2-chloro-5-[({5-[1-(3,4-dichlorophenyl)-1-methylethyl]-1-(4-fluorophenyl)-1H-imidazol-2-yl}thio)methyl]benzamide] | < 100
COc1ccc(C(C)(C)c2cnc(SCc3ccc(F)c(Cl)c3)n2-c2ccc(F)cc2)cc1OC [5-{1-[3,4-bis(methyloxy)phenyl]-1-methylethyl}-2-{[(3-chloro-4-fluorophenyl)methyl]thio}-1-(4-fluorophenyl)-1H-imidazole] | < 100
CC(C)(c1ccc(Cl)c(Cl)c1)c1cnc(SCc2ccc(F)cc2C(N)=O)n1-c1ccc(F)cc1 [2-[({5-[1-(3,4-dichlorophenyl)-1-methylethyl]-1-(4-fluorophenyl)-1H-imidazol-2-yl}thio)methyl]-5-fluorobenzamide] | 100 to 1000
CC(C)(c1ccc(Cl)c(Cl)c1)c1cnc(SCc2ccc(C#N)cc2Cl)n1-c1ccc(F)cc1 [3-chloro-4-[({5-[1-(3,4-dichlorophenyl)-1-methylethyl]-1-(4-fluorophenyl)-1H-imidazol-2-yl}thio)methyl]benzonitrile] | 100 to 1000
CC(C)(c1ccc(Cl)c(Cl)c1)c1cnc(S(=O)(=O)Cc2c(F)cccc2Cl)n1-c1ccc(F)cc1Cl [1-(2-chloro-4-fluorophenyl)-2-{[(2-chloro-6-fluorophenyl)methyl]sulfonyl}-5-[1-(3,4-dichlorophenyl)-1-methylethyl]-1H-imidazole] | 1000 to 10000

Further lines, results first:

EC50 [nM] | Compound
1000 to 10000 | CC(C)(c1ccc(Cl)c(Cl)c1)c1cnc(SCc2ccc(F)cc2Cl)n1-c1ccc(N2CCOCC2)cc1 [4-[4-(2-{[(2-chloro-4-fluorophenyl)methyl]thio}-5-[1-(3,4-dichlorophenyl)-1-methylethyl]-1H-imidazol-1-yl)phenyl]morpholine]
< 100 | CC(C)(c1ccc(Cl)c(Cl)c1)c1cnc(SCc2c(F)cc(C#N)cc2F)n1-c1ccc(F)cc1 [4-[({5-[1-(3,4-dichlorophenyl)-1-methylethyl]-1-(4-fluorophenyl)-1H-imidazol-2-yl}thio)methyl]-3,5-difluorobenzonitrile]
< 100 | COc1ccc(C(C)(C)c2cnc(CNCc3ccc(Cl)c(F)c3)n2-c2ccc(F)cc2)cc1OC [1-[5-{1-[3,4-bis(methyloxy)phenyl]-1-methylethyl}-1-(4-fluorophenyl)-1H-imidazol-2-yl]-N-[(4-chloro-3-fluorophenyl)methyl]methanamine]
100 to 1000 | CC(C)(c1ccc(Cl)c(Cl)c1)c1cnc(SCc2ccc(OCCCO)c(C#N)c2)n1-c1ccc(F)cc1 [5-[({5-[1-(3,4-dichlorophenyl)-1-methylethyl]-1-(4-fluorophenyl)-1H-imidazol-2-yl}thio)methyl]-2-[(3-hydroxypropyl)oxy]benzonitrile]
1000 to 10000 | CC(C)(c1ccc(Cl)c(Cl)c1)c1cnc(SCc2ccc(Cl)c(C(=N)N)c2)n1-c1ccc(F)cc1 [2-chloro-5-[({5-[1-(3,4-dichlorophenyl)-1-methylethyl]-1-(4-fluorophenyl)-1H-imidazol-2-yl}thio)methyl]benzenecarboximidamide]
1000 to 10000 | CC(C)(c1ccc(Cl)c(Cl)c1)c1cnc(C2CCN(C(=O)NN3CCCC3)CC2)n1-c1ccc(F)cc1 [4-{5-[1-(3,4-dichlorophenyl)-1-methylethyl]-1-(4-fluorophenyl)-1H-imidazol-2-yl}-N-pyrrolidin-1-ylpiperidine-1-carboxamide]
< 100 | COc1c(Cl)cc(C(C)(C)c2cnc(SCc3ccc(S(N)(=O)=O)cc3Cl)n2-c2ccc(F)cc2)cc1Cl [3-chloro-4-({[5-{1-[3,5-dichloro-4-(methyloxy)phenyl]-1-methylethyl}-1-(4-fluorophenyl)-1H-imidazol-2-yl]thio}methyl)benzenesulfonamide]
1000 to 10000 | CC(C)(c1ccc(Cl)c(Cl)c1)c1cnc(SCC2CCN(c3ccc(F)cc3)CC2)n1-c1ccc(F)cc1 [4-[({5-[1-(3,4-dichlorophenyl)-1-methylethyl]-1-(4-fluorophenyl)-1H-imidazol-2-yl}thio)methyl]-1-(4-fluorophenyl)piperidine]
1000 to 10000 | CC(C)(C(=O)O)c1ccc(F)c(CSc2ncc(C(C)(C)c3ccc(Cl)c(Cl)c3)n2-c2ccc(F)cc2)c1 [2-{3-[({5-[1-(3,4-dichlorophenyl)-1-methylethyl]-1-(4-fluorophenyl)-1H-imidazol-2-yl}thio)methyl]-4-fluorophenyl}-2-methylpropanoic acid]
1000 to 10000 | COc1ccc(C(C)(C)c2cnc(C(=O)NC3CCCCC3)n2-c2ccc(F)cc2)cc1OC [5-{1-[3,4-bis(methyloxy)phenyl]-1-methylethyl}-N-cyclohexyl-1-(4-fluorophenyl)-1H-imidazole-2-carboxamide]
100 to 1000 | CC(C)(c1ccc(Cl)c(Cl)c1)c1cnc(SCc2ccc(C(=N)N)cc2Cl)n1-c1ccc(F)cc1 [3-chloro-4-[({5-[1-(3,4-dichlorophenyl)-1-methylethyl]-1-(4-fluorophenyl)-1H-imidazol-2-yl}thio)methyl]benzenecarboximidamide]
100 to 1000 | CC(C)(c1ccc(Cl)c(Cl)c1)c1cnc(SCc2ccc(-c3nnn[nH]3)c(Cl)c2)n1-c1ccc(F)cc1 [5-{2-chloro-4-[({5-[1-(3,4-dichlorophenyl)-1-methylethyl]-1-(4-fluorophenyl)-1H-imidazol-2-yl}thio)methyl]phenyl}-1H-tetrazole]
< 100 | CC(C)(c1ccc2c(c1)OCO2)c1cnc(SCc2c(F)cccc2Cl)n1-c1ccc(F)cc1 [5-[1-(1,3-benzodioxol-5-yl)-1-methylethyl]-2-{[(2-chloro-6-fluorophenyl)methyl]thio}-1-(4-fluorophenyl)-1H-imidazole]
< 100 | COc1ccc(C(C)(C)c2cnc(S(=O)(=O)CCc3ccc(Cl)c(Cl)c3)n2-c2ccc(F)cc2)cc1OC [5-{1-[3,4-bis(methyloxy)phenyl]-1-methylethyl}-2-{[2-(3,4-dichlorophenyl)ethyl]sulfonyl}-1-(4-fluorophenyl)-1H-imidazole]
< 100 | CC(C)(c1ccc(Cl)c(Cl)c1)c1cnc(SCc2cc(C#N)ccc2Cl)n1-c1ccc(F)cc1 [4-chloro-3-[({5-[1-(3,4-dichlorophenyl)-1-methylethyl]-1-(4-fluorophenyl)-1H-imidazol-2-yl}thio)methyl]benzonitrile]
< 100 | CC(C)(c1ccc2c(c1)OCCO2)c1cnc(SCc2c(F)cccc2Cl)n1-c1ccc(F)cc1 [2-{[(2-chloro-6-fluorophenyl)methyl]thio}-5-[1-(2,3-dihydro-1,4-benzodioxin-6-yl)-1-methylethyl]-1-(4-fluorophenyl)-1H-imidazole]
